Assay results reported in article PMC7413297 (Journal of immunology (Baltimore, Md. : 1950), 2020).
Read-outs that look alike come from different tables or passages of the source. Ends that are not written are not given here. Peptide text beside a SMILES is read from it.

Target: HLA A*02:01 class I molecules (Homo sapiens, UniProt P04439, D140Y/D185E/D98H/E176V/E277Q/G131W/G231S/I119V/I121R/I166T/I218V/L300P/L318F/N151K/N90K/P208A/P217A/Q86G/Q94H/R138H/R169H/T345S)
Assay: MHC-peptide competitive binding assay
[1] = IC50 2-ME, reducing conditions, 1 mM 2-ME added
[2] = IC50 No Protease Inhibitors, as standard assay but excluding protease inhibitors
[3] = as standard assay but excluding protease inhibitors
[4] = reducing conditions, 1 mM 2-ME added

| Compound | IC50 [nM] | IC50 [1] [nM] | IC50 [2] [nM] | IC50 No Protease Inhibitors [3] | IC50 2-ME [4] |
| --- | --- | --- | --- | --- | --- |
| CQWGRLWQL [reference compound] | 1200 | 130 | 952 | – | – |
| BISSCNPNL | – | – | – | 573 ng/mL | 250 ng/mL |
| CISSBNPNL | – | – | – | 1,047 ng/ml | 618 ng/mL |
| ILBETCLIV | – | – | – | 58 ng/mL | 82 ng/mL |
| BISSBNPNP | – | – | – | 17,100 ng/ml | 13,400 ng/ml |
| RLPRIFBSB | – | – | – | 7.2 ng/mL | 14 ng/mL |
| SLLMWITQB | – | – | – | 94 ng/mL | – |
| BQWGRLWQL | – | – | – | 121 ng/mL | 93 ng/mL |
| BISSBNPNL | – | – | – | 604 ng/mL | 1,260 ng/ml |
| SCSRAVPQV [reference compound] | 12300 | 2480 | 7350 | – | – |

More lines, now with the values ahead:

| IC50 [nM] | IC50 [1] [nM] | IC50 [2] [nM] | IC50 No Protease Inhibitors [3] | IC50 2-ME [4] | Compound |
| --- | --- | --- | --- | --- | --- |
| 1530 | 207 | 551 | – | – | SCSRAIPQV [reference compound] |
| – | – | – | 14 ng/mL | 24 ng/mL | 1LBETBLIV |
| – | 12600 | 3090 | – | – | ACDPHSGHFV [reference compound] |
| – | – | – | 839 ng/mL | 885 ng/mL | ILCGTBLIV |
| – | – | – | 733 ng/mL | 1,547 ng/ml | ILBGTBLIV |
| 458 | 304 | 323 | – | – | CC[C@H](C)[C@H](N)C(=O)N[C@@H](CC(C)C)C(=O)N[C@@H](CS)C(=O)N[C@@H](CCC(=O)O)C(=O)N[C@H](C(=O)N[C@@H](CS)C(=O)N[C@@H](CC(C)C)C(=O)N[C@H](C(=O)N[C@H](C(=O)O)C(C)C)[C@@H](C)CC)[C@@H](C)O [reference compound] (H-ILCETCLIV-OH) |
| – | – | – | 3.3 ng/mL | 2.5 ng/mL | VLPDVFIRB |
| – | – | – | 104 ng/mL | 93 ng/mL | ILCETBLIV |
| 206 | 244 | 582 | – | – | CC[C@H](C)[C@H](N)C(=O)N[C@@H](CC(C)C)C(=O)N[C@@H](CS)C(=O)NCC(=O)N[C@H](C(=O)N[C@@H](CS)C(=O)N[C@@H](CC(C)C)C(=O)N[C@H](C(=O)N[C@H](C(=O)O)C(C)C)[C@@H](C)CC)[C@@H](C)O [reference compound] (H-ILCGTCLIV-OH) |
| 454 | 30.2 | 121 | – | – | VLPDVFIRC [reference compound] |
| 9010 | 907 | 1010 | – | – | HMTEVVRRC [reference compound] |
| – | – | – | 11 ng/mL | 27 ng/mL | RLPRIFCSB |
